Data taken from patent US20250230244A1, “METHODS AND COMPOSITIONS COMPRISING B7-H3 BINDING POLYPETIDES” (BOARD OF REGENTS, THE UNIVERSITY OF TEXAS SYSTEM, priority 2021, published 2025).

Columns and labels:
[1] = test system: AML cell lines (OCI-AML3, MV4-11, and U937); assay: NK cell ADCC, annexin V binding, Incucyte, AML cell lines; assay type: cell-based, human
Experimental: For live-cell apoptosis analysis, the inventors stained OCI-AML3, MV4-11, U937, and primary cells with CytoLight Red (#4482; Essen BioScience). […] Time-lapse fluorescence imaging was performed using an Incucyte live-cell imaging system (Essen BioScience) to assess apoptosis induction every 1 hour for 20-48 hours. The apoptosis in leukemic cells was measured by green and red overlap counts.
Rituximab is a chimeric anti-CD20 antibody that was used as a non-specific control antibody. NK cell-induced apoptosis was measured by annexin V binding assay using the Incucyte live-cell imaging system. […] Representative images of OCI-AML3 cells undergoing apoptosis at different time points in different treatment conditions are shown in FIG. 12A.

[2] = test system: BC cell lines (MCF7 and HCC38); assay: NK cell-mediated ADCC in breast cancer cell lines; assay type: cell-based, human; settings: 10 μg/mL
Source text: Rituximab is a chimeric anti-CD20 antibody that was used as a nonspecific control antibody.

For rituximab [reference compound], the “apoptosis of leukemic cells (NK cell ADCC)” value ([1]; 1, 5, and 10 μg/mL, with NK cells, 8:1 ratio) was “did not show significant outcomes”, the “killing of leukemic cells, antibody alone, at 28 and 22 hours” value ([1]; antibody alone) was “no effect on killing leukemic cells” and the “apoptosis in BC cells (ADCC)” value ([2]; with NK cells, 15:1 NK-to-target cell ratio) was “did not show significant outcomes”. The “killing of BC cells, antibody alone, after 10 hours” value ([2]; without NK cells) was “did not affect the killing of BC cells”.
